How the values were obtained:
Test in all cases: In vitro cytotoxicity, MTT micro-titration analysis
Type in all cases: cell-based
[1] = system: human cancer cell line of malignant melanoma G361; conditions: G361 cells, 24 h incubation with complex, read-out: inhibition concentrations IC50
Procedure: (§1) The cytotoxic activities of the prepared complexes, as it is given below in the examples 1-6, were tested by micro-titration analysis using 3-(4,5-dimethylthiazol-2-yl)-2,5-diphenyltetrazolium bromide (MTT). The test detected living cells, whose number corresponds to the reduced MTT quantity. In vitro cytotoxicity was tested against the following human cancer cells: lung carcinoma A549, malignant melanoma G361, cervix carcinoma HeLa, ovarian carcinoma A2780, cisplatin-resistant ovarian carcinoma A2780R and prostate carcinoma LNCaP. The cells were maintained in plastic tissue culture flasks in the DMEM medium (5 g/L of glucose, 2 mM of glutamine, 100 U/mL of penicillin, 100 µg/mL of streptomycine, 10% fetal calf serum and sodium hydrogen carbonate) for cell cultures. The cell suspensions (ca 1.25 x 10^5 cells mL^-1) were pipetted (80 µL) into 96-well microplates. They were incubated at 37 °C in the CO2 atmosphere for 24 h. The tested dichlorido complexes of platinum were dissolved in N,N'-dimethylformamide (DMF) and diluted to the 50.0 mM concentration - these solutions represent the stock solutions. […]
(§2) The in vitro antitumor activity of the studied complexes cis-[PtCl2(L2)2] […] (3) against human cancer cell line of malignant melanoma G361 was determined by the above-described micro-titration analysis using MTT (L2 = 3-chloro-7-azaindole, L3 = 3-iodo-7-azaindole, L6 = 5-bromo-7-azaindole).

[2] = system: human cancer cell line of lung carcinoma A549; conditions: A549 cells, 24 h incubation with complex, read-out: inhibition concentrations IC50
Procedure: as §1
The in vitro antitumor activity of the studied complexes cis-[PtCl2(L2)2] […] (3) against human cancer cell line of lung carcinoma A549 was determined by the above-described micro-titration analysis using MTT (L2= 3-chloro-7-azaindole, L3 = 3-iodo-7-azaindole, L6 = 5-bromo-7-azaindole).

[3] = system: human cancer cell line of cisplatin-resistant ovarian carcinoma A2780R; conditions: A2780R cells, 24 h incubation with complex, read-out: inhibition concentrations IC50
Procedure: as §1, with “h.” for “h. The tested dichlorido complexes of platinum were dissolved in N,N'-dimethylformamide (DMF) and diluted to the 50.0 mM concentration - these solutions represent the stock solutions.”
as §2, with “cisplatin-resistant ovarian carcinoma A2780R” for “malignant melanoma G361”

[4] = system: human cancer cell line of ovarian carcinoma A2780; conditions: A2780 cells, 24 h incubation with complex, read-out: inhibition concentrations IC50
Procedure: as §1
The in vitro antitumor activity of the studied complexes cis-[PtCl2(L2)2] […] (3) against human cancer cell line of ovarian carcinoma A2780 was determined by the above-described micro-titration analysis using MTT (L2 = 3-chloro-7-azaindole, L3 = 3-iodo-7-azaindole, L6 = 5-bromo-7-azaindole).

[5] = system: human cancer cell line of cervix carcinoma HeLa; conditions: HeLa cells, 24 h incubation with complex, read-out: inhibition concentrations IC50
Procedure: as §1
The in vitro antitumor activity of the studied complexes cis-[PtCl2(L2)2] […] (3) against human cancer cell line of cervix carcinoma HeLa was determined by the above-described micro-titration analysis using MTT (L2 = 3-chloro-7-azaindole, L3 = 3-iodo-7-azaindole, L6 = 5-bromo-7-azaindole).

[6] = system: human cancer cell line of prostate carcinoma LNCaP; conditions: LNCaP cells, 24 h incubation with complex, read-out: inhibition concentrations IC50
Procedure: as §1
The in vitro antitumor activity of the studied complexes cis-[PtCl2(L2)2] […] (3) against human cancer cell line of prostate carcinoma LNCaP was determined by the above-described micro-titration analysis using MTT (L2 = 3-chloro-7-azaindole, L3 = 3-iodo-7-azaindole, L6 = 5-bromo-7-azaindole).

## N.N.[Cl][Pt][Cl] [cisplatin, Cis-diammine-dichloridoplatinum(II) complex, reference compound]
[1]
  IC50: 3.4 ± 0.1 µM
[2]
  IC50: 25.8 ± 7.1 µM
[3]
  IC50: 27 ± 4.6 µM
[4]
  IC50: 12 ± 0.8 µM
[5]
  IC50: 10 ± 2.6 µM
[6]
  IC50: 3.8 ± 1.5 µM
